ChEMBL document CHEMBL4699477, “Tricyclic sulfones as potent, selective and efficacious RORγt inverse agonists - Exploring C6 and C8 SAR using late-stage functionalization” (Bioorg Med Chem Lett, 2020)
Values after ≈ are worked out from the molar mass of the structure shown.

Key:
[1] = Metabolic stability in human liver microsomes assessed as half life; type: ADME, Microsome
[2] = Half life in BALB/c mouse at 2 mg/kg, iv; type: ADME, organism-based; conditions: in vivo
[3] = Volume of distribution at steady state in cynomolgus monkey at 1 mg/kg, iv; type: ADME, organism-based, Macaca fascicularis; conditions: in vivo, read-out: Vdss
[4] = Fraction unbound in mouse plasma; type: ADME, cell-free
[5] = target: T1, Nuclear receptor ROR-gamma (Mus musculus, UniProt P51450); assay: Inverse agonist activity at RORgammat in mouse Th17 cells; type: cell-based
T1 sequence (P51450 whole entry): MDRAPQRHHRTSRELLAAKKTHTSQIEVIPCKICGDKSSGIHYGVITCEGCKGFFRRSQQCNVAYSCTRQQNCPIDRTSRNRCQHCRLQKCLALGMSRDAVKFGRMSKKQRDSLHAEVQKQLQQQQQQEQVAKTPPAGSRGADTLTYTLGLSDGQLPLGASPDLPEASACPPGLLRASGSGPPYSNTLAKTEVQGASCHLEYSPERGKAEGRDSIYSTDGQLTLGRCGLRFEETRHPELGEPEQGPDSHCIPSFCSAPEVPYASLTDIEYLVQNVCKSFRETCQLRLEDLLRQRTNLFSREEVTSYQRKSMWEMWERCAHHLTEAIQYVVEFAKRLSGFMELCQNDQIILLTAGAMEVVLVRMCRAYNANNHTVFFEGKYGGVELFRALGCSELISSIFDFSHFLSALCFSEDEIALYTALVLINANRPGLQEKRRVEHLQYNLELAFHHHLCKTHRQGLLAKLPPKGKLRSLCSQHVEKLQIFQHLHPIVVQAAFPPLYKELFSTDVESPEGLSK

[6] = Total AUC in BALB/c mouse at 4 mg/kg, po; type: ADME, organism-based; set-up: time AUCmax, route oral, dose 4 mg/kg; conditions: in vivo
[7] = Solubility of compound at pH 7.4; type: physicochemical; conditions: buffer
Cytochrome P450 2C19 = Cytochrome P450 2C19 (Homo sapiens, UniProt P33261); assay: Inhibition of recombinant CYP2C19 (unknown origin); type: ADME
[8] = Volume of distribution at steady state in BALB/c mouse at 2 mg/kg, iv; type: ADME, organism-based; conditions: in vivo, read-out: Vdss
[9] = target: T2, Oxysterols receptor LXR-beta (Homo sapiens, UniProt P55055); assay: Inverse agonist activity of LXRbeta (unknown origin)
T2 sequence (P55055 whole entry): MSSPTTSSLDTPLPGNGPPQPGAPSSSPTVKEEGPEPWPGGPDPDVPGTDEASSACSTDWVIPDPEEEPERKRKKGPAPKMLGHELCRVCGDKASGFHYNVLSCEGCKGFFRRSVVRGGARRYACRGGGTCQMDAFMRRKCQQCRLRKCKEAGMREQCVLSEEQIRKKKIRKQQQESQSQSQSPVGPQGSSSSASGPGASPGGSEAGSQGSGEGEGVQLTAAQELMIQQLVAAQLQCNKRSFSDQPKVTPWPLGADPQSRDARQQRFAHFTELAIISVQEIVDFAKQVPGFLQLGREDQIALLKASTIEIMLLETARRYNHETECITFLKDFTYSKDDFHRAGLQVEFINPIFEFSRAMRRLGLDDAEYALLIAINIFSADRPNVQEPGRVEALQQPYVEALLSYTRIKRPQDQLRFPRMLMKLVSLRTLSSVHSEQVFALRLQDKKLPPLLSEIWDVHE

Cytochrome P450 1A2 = target: T3, Cytochrome P450 1A2 (Homo sapiens, UniProt P05177); assay: Inhibition of recombinant CYP1A2 (unknown origin); type: ADME
T3 sequence (P05177 whole entry): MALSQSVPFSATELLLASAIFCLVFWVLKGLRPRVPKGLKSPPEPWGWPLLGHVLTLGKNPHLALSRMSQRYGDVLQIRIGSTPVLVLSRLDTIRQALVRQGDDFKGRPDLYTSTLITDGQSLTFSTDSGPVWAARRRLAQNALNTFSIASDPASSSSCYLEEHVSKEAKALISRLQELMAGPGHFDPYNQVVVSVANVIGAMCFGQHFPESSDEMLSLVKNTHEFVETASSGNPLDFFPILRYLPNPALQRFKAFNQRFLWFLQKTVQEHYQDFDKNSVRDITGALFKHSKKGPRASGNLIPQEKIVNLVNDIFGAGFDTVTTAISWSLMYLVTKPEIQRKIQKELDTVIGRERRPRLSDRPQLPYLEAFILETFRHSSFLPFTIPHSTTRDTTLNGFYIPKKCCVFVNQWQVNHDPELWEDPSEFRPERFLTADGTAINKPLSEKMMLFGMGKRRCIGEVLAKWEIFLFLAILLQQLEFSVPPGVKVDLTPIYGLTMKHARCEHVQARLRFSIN

[10] = Clearance in cynomolgus monkey at 1 mg/kg, iv; type: ADME, organism-based, Macaca fascicularis; conditions: in vivo
[11] = Metabolic stability in cynomolgous monkey liver microsomes assessed as half life; type: ADME, Macaca fascicularis, Microsome; conditions: cynomolgus monkey
[12] = Metabolic stability in mouse liver microsomes assessed as half life; type: ADME, Microsome
[13] = Cmax in rat at 4 mg/kg, po; type: ADME, organism-based; set-up: route oral, dose 4 mg/kg; conditions: in vivo
[14] = Cmax in dog at 2 mg/kg, po; type: ADME, organism-based, Canis lupus familiaris; set-up: route oral, dose 2 mg/kg; conditions: in vivo
[15] = Oral bioavailability in dog at 2 mg/kg; type: ADME, organism-based, Canis lupus familiaris; conditions: in vivo
[16] = Metabolic stability in rat liver microsomes assessed as half life; type: ADME, Microsome
[17] = Half life in cynomolgus monkey at 1 mg/kg, iv; type: ADME, organism-based, Macaca fascicularis; conditions: in vivo
[18] = Cmax in BALB/c mouse at 4 mg/kg, po; type: ADME, organism-based; set-up: route oral, dose 4 mg/kg; conditions: in vivo
[19] = Clearance in rat at 2 mg/kg, iv; type: ADME, organism-based; conditions: in vivo
[20] = Permeability in human Caco-2 cells; type: ADME, cell-based; conditions: read-out: permeability
[21] = Fraction unbound in human plasma; type: ADME, cell-free
[22] = Total AUC in dog at 2 mg/kg, po; type: ADME, organism-based, Canis lupus familiaris; set-up: time AUCmax, route oral, dose 2 mg/kg; conditions: in vivo
[23] = target: Voltage-gated inwardly rectifying potassium channel KCNH2 (Homo sapiens, UniProt Q12809); assay: Inhibition of human ERG by patch clamp assay
[24] = Cmax in cynomolgus monkey at 2 mg/kg, po; type: ADME, organism-based, Macaca fascicularis; set-up: route oral, dose 2 mg/kg; conditions: in vivo
[25] = Solubility of compound at pH 1; type: physicochemical; conditions: buffer
[26] = Half life in rat at 2 mg/kg, iv; type: ADME, organism-based; conditions: in vivo
[27] = Total AUC in dog at 1 mg/kg, iv; type: ADME, organism-based, Canis lupus familiaris; set-up: route intravenous, time AUCmax, dose 1 mg/kg; conditions: in vivo

Cytochrome P450 2C19, sequence (P33261 whole entry): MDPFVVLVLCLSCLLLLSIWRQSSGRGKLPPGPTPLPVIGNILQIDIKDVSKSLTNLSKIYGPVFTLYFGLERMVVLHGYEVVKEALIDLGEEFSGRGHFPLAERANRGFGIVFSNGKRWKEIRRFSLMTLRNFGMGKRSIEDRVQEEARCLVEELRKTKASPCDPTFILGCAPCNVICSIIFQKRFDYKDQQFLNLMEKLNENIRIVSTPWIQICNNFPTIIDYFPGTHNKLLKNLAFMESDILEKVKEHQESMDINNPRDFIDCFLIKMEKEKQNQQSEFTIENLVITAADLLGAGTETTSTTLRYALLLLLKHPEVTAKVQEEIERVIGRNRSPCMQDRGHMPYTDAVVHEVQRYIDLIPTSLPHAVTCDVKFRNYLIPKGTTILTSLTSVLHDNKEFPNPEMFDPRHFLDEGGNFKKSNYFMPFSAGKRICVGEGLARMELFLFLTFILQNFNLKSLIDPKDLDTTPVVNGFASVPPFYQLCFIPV
Voltage-gated inwardly rectifying potassium channel KCNH2, sequence (Q12809 whole entry): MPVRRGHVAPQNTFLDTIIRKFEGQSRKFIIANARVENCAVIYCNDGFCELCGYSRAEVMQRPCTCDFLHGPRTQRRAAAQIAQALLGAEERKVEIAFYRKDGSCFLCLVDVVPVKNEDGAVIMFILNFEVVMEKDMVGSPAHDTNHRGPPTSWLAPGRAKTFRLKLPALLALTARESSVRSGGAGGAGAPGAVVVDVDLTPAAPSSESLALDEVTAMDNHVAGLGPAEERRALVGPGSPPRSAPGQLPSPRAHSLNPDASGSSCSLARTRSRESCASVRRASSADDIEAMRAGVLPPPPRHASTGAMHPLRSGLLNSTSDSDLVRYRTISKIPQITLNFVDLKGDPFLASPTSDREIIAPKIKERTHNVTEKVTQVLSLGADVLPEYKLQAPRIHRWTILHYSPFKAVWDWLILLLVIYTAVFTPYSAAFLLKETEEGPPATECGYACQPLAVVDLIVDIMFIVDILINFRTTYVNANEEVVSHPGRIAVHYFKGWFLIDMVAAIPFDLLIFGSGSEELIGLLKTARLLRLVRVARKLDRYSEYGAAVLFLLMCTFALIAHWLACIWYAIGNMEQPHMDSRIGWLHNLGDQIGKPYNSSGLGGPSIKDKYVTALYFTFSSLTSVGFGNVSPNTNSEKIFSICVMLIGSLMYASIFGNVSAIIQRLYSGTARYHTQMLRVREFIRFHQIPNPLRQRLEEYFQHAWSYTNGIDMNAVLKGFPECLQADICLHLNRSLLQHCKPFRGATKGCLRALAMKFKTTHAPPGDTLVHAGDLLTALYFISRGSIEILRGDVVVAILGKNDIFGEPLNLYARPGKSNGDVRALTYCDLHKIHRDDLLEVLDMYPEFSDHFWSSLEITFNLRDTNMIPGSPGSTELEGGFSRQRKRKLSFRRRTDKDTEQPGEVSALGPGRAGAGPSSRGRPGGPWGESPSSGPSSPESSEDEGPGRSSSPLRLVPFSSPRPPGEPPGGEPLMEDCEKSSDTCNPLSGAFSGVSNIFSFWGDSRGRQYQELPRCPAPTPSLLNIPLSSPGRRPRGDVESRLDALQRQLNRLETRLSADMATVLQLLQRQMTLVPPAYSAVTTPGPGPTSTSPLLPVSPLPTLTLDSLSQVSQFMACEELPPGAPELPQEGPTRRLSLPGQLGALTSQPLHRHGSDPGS

half-life [1]: > 2 h
half-life [2]: 7.7 h
Vd [3]: 1.2 L/kg
fraction unbound [4]: 0.016
EC50 [5]: 0.002 µM
AUC [6]: 39 µM·h
solubility [7]: 1600 µg/mL (≈ 2400 µM)
IC50 (Cytochrome P450 2C19): > 20 µM
Vd [8]: 1.6 L/kg
EC50 [9]: > 7.5 µM
IC50 (Cytochrome P450 1A2): > 20 µM
clearance [10]: 1.1 mL/min/kg
half-life [11]: > 2 h
half-life [12]: > 2 h
Cmax [13]: 4.1 µM
Cmax [14]: 3.8 µM
bioavailability [15]: 90%
half-life [16]: > 2 h
half-life [17]: 27 h
Cmax [18]: 4.6 µM
clearance [19]: 2.6 mL/min/kg
Papp [20]: 12 ×10⁻⁶ cm/s
fraction unbound [21]: 0.012
AUC [22]: 144 µM·h
Cmax [24]: 3.9 µM
solubility [25]: 1.4 µg/mL (≈ 2.1 µM)
half-life [26]: 5.8 h
AUC [27]: 80 µM·h
Structure (SMILES): C[C@H]1C[C@H](C(=O)O)CC[C@H]1C(=O)N1CC[C@@]2(S(=O)(=O)c3ccccc3)c3cc(F)c(C(F)(C(F)(F)F)C(F)(F)F)cc3CC[C@@H]12
IC50 [23]: 18 µM
